Results taken from patent US9034921B2, “Diphenylmethane derivatives as SGLT2 inhibitors” (GREEN CROSS CORPORATION, priority 2011, dated 2015).
Where a name gives a salt, the structure may show the parent alone.

Molecular target: human SGLT2 (Homo sapiens (Human), UniProt P31639)
Experiment: Inhibitory effects on human SGLT2 activities (14C-AMG uptake, sodium-dependent glucose transport assay)
Assay type: cell-based
Conditions: CHO cells stably expressing hSGLT2, 37° C., 2 h, single determinations
In short: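 CHO cells stably expressing hSGLT2 were preincubated 10 min at 37 °C in choline (Na+-free) buffer, then exposed 2 h at 37 °C to compound in Na+ uptake buffer with 8 μM 14C-AMG and 1 mM unlabeled AMG. Radioactivity was scintillation counted; IC50 came from nonlinear regression.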

Chain of human SGLT2 (P31639 whole entry): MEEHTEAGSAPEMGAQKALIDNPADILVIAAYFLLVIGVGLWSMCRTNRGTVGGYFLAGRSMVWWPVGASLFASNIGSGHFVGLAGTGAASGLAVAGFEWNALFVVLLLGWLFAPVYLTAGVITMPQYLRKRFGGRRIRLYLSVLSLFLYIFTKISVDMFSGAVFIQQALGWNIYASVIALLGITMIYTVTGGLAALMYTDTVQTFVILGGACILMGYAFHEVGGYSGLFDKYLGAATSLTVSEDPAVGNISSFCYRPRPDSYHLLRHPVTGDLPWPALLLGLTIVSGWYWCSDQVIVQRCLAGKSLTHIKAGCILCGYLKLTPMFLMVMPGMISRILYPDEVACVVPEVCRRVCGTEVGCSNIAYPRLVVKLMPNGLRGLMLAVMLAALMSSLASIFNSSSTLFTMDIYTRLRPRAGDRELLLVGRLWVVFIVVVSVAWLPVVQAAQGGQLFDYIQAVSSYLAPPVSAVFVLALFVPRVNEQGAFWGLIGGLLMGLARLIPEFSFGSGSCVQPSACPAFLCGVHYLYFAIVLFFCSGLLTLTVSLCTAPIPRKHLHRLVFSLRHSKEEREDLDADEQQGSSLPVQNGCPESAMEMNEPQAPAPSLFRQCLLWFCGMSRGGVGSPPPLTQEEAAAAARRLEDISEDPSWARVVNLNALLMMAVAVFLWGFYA

IC50 [nM]	Compound
1.34	CNc1ccc(Cc2cc([C@@H]3O[C@H](CO)[C@@H](O)[C@H](O)[C@H]3O)c3c(c2Cl)CCC3)cc1 [Example E140, (2S,3R,4R,5S,6R)-2-(7-Chloro-6-(4-(methylamino)benzyl)-2,3-dihydro-1H-inden-4-yl)-6-(hydroxymethyl)tetrahydro-2H-pyran-3,4,5-triol 2,2,2-trifluoroacetate]
0.86	Cc1c(Cc2ccc3c(c2)OCCO3)cc([C@@H]2O[C@H](CO)[C@@H](O)[C@H](O)[C@H]2O)c2c1CCC2 [Example E107, (2S,3R,4R,5S,6R)-2-(6-((2,3-Dihydrobenzo[b][1,4]dioxin-6-yl)methyl)-7-methyl-2,3-dihydro-1H-inden-4-yl)-6-(hydroxymethyl)tetrahydro-2H-pyran-3,4,5-triol]
1.96	CC(C)Oc1ccc(Cc2cc([C@@H]3O[C@H](CO)[C@@H](O)[C@H](O)[C@H]3O)c3c(c2Cl)OCC3)cc1 [Example E205, (2S,3R,4R,5S,6R)-2-(7-Chloro-6-(4-isopropoxybenzyl)-2,3-dihydrobenzofuran-4-yl)-6-(hydroxymethyl)tetrahydro-2H-pyran-3,4,5-triol]
2.12	CC(O)c1ccc(Cc2cc([C@@H]3O[C@H](CO)[C@@H](O)[C@H](O)[C@H]3O)c3c(c2Cl)OCC3)cc1 (stereo partly drawn) [Example E169, (2S,3R,4R,5S,6R)-2-(7-Chloro-6-(4-(1-hydroxyethyl)benzyl)-2,3-dihydrobenzofuran-4-yl)-6-(hydroxymethyl)tetrahydro-2H-pyran-3,4,5-triol]
0.721	CCc1ccc(Cc2cc([C@@H]3O[C@H](CO)[C@@H](O)[C@H](O)[C@H]3O)c3c(c2Cl)OCC3C)cc1 (stereo partly drawn) [Example E153, (2S,3R,4R,5S,6R)-2-(7-Chloro-6-(4-ethylbenzyl)-3-methyl-2,3-dihydrobenzofuran-4-yl)-6-(hydroxymethyl)tetrahydro-2H-pyran-3,4,5-triol]
6.12	CCOc1ccc(Cc2cc([C@@H]3O[C@H](CO)[C@@H](O)[C@H](O)[C@H]3O)c3c(c2Cl)N(C)CCO3)cc1 [Example E213, (2S,3R,4R,5S,6R)-2-(5-Chloro-6-(4-ethoxybenzyl)-4-methyl-3,4-dihydro-2H-benzo[b][1,4]oxazin-8-yl)-6-(hydroxymethyl)tetrahydro-2H-pyran-3,4,5-triol]
9.08	OC[C@H]1O[C@@H](c2ccc(Cl)c(Cc3ccc(N4CCOCC4)cc3)c2)[C@H](O)[C@@H](O)[C@@H]1O [Example E211, (2S,3R,4R,5S,6R)-2-(4-Chloro-3-(4-morpholinobenzyl)phenyl)-6-(hydroxymethyl)tetrahydro-2H-pyran-3,4,5-triol]
53.9	CO[C@@H]1O[C@@H](c2ccc(Cl)c(Cc3ccc4c(c3)OCCO4)c2)[C@H](O)[C@@H](O)[C@@H]1O [Example E094, (2S,3R,4R,5S,6R)-2-(4-Chloro-3-((2,3-dihydrobenzo[b][1,4]dioxin-6-yl)methyl)phenyl)-6-methoxy-tetrahydro-2H-pyran-3,4,5-triol]
2.31	Cn1cc2cc(Cc3cc([C@@H]4O[C@H](CO)[C@@H](O)[C@H](O)[C@H]4O)ccc3Cl)ccc2n1 [Example E036, (2S,3R,4R,5S,6R)-2-(4-Chloro-3-((2-methyl-2H-indazol-5-yl)methyl)phenyl)-6-(hydroxymethyl)tetrahydro-2H-pyran-3,4,5-triol]
3.35	OC[C@H]1O[C@@H](c2ccc(Cl)c(Cc3ccc4c(c3)CCCS4)c2)[C@H](O)[C@@H](O)[C@@H]1O [Example E061, (2S,3R,4R,5S,6R)-2-(4-Chloro-3-(thiochroman-6-ylmethyl)phenyl)-6-(hydroxymethyl)-tetrahydro-2H-pyran-3,4,5-triol]

Compound	IC50 [nM]
OC[C@H]1O[C@@H](c2cc(Cc3ccc(CN4CC4)cc3)c(Cl)c3c2CCO3)[C@H](O)[C@@H](O)[C@@H]1O [Example E185, (2S,3R,4R,5S,6R)-2-(6-(4-(Aziridin-1-ylmethyl)benzyl)-7-chloro-2,3-dihydrobenzofuran-4-yl)-6-(hydroxymethyl)tetrahydro-2H-pyran-3,4,5-triol trifluoro acetic acid salt]	164
